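Where inhibition never reached the appropriate level, the endpoint shown equals the highest concentration tested. Otherwise, values were interpolated linearly from a five-concentration, 48-hour dose response in 96-well plates. GI50: concentration for 50% inhibition of growth.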 Active and inactive are the calls of the source. Cut-off read from the data, not from the text of the source: active = GI50 up to about 1.1 µM and inactive = higher.
Key:
Assay in all cases: NCI-60 cell line screen, 48 h
RPMI-8226 = system: RPMI-8226
MDA-N = system: MDA-N
MDA-MB-231 = system: MDA-MB-231
SK-MEL-28 = system: SK-MEL-28
CAKI-1 = system: CAKI-1
ACHN = system: ACHN
UACC-257 = system: UACC-257
SF-268 = system: SF-268
OVCAR-4 = system: OVCAR-4
A549 = system: A549
Hs-578T = system: Hs-578T
CCRF-CEM = system: CCRF-CEM
Malme-3M = system: Malme-3M
IGROV-1 = system: IGROV-1
K562 = system: K562
UACC-62 = system: UACC-62
SF-539 = system: SF-539
HOP-92 = system: HOP-92
HCC 2998 = system: HCC 2998
786-0 = system: 786-0
MDA-MB-435 = system: MDA-MB-435
T47D = system: T47D
PC-3 = system: PC-3
SR = system: SR
RXF 393 = system: RXF 393
NCI/ADR-RES = system: NCI/ADR-RES
KM12 = system: KM12
TK-10 = system: TK-10
OVCAR-3 = system: OVCAR-3
HL-60 = system: HL-60
NCI-H522 = system: NCI-H522
HOP-62 = system: HOP-62
NCI-H226 = system: NCI-H226
A498 = system: A498
SN12C = system: SN12C
DU-145 = system: DU-145
SK-MEL-2 = system: SK-MEL-2
MOLT-4 = system: MOLT-4
SK-OV-3 = system: SK-OV-3
NCI-H23 = system: NCI-H23
M14 = system: M14
LOX IMVI = system: LOX IMVI
U-251 = system: U-251
EKVX = system: EKVX
SNB-19 = system: SNB-19
HCT-116 = system: HCT-116
UO-31 = system: UO-31
OVCAR-8 = system: OVCAR-8
COLO 205 = system: COLO 205
SW-620 = system: SW-620
SF-295 = system: SF-295
SNB-75 = system: SNB-75
NCI-H460 = system: NCI-H460
OVCAR-5 = system: OVCAR-5
SK-MEL-5 = system: SK-MEL-5
HCT-15 = system: HCT-15
BT-549 = system: BT-549
HT-29 = system: HT-29
MCF7 = system: MCF7

For `COC(=O)C1=C(O)C(C(=O)OC)[C@]2(O)[C@H](C(=O)OC)[C@H]1C[C@@H](c1ccccc1OC)[C@H]2C(=O)OC` (some centres not stated), the GI50 (RPMI-8226) was 2.17 µM (inactive), the GI50 (MDA-N) was 1.98 µM (inactive) and the GI50 (MDA-MB-231) was 9.55 µM (inactive). For the same molecule, the GI50 (SK-MEL-28) was 7.87 µM (inactive), the GI50 (CAKI-1) was 3.99 µM (inactive) and the GI50 (ACHN) was 6.25 µM (inactive). The GI50 (UACC-257) was 9.64 µM (inactive), the GI50 (SF-268) was 4.53 µM (inactive) and the GI50 (OVCAR-4) was 4.95 µM (inactive). For the same molecule, the GI50 (A549) was 3.85 µM (inactive), the GI50 (Hs-578T) was 2.49 µM (inactive) and the GI50 (CCRF-CEM) was 3.56 µM (inactive). For the same molecule, the GI50 (Malme-3M) was 2.83 µM (inactive), the GI50 (IGROV-1) was 3.33 µM (inactive) and the GI50 (K562) was 4.38 µM (inactive). The GI50 (UACC-62) was 4.24 µM (inactive), the GI50 (SF-539) was 2.71 µM (inactive) and the GI50 (HOP-92) was 2.34 µM (inactive). The GI50 (HCC 2998) was 10.5 µM (inactive), the GI50 (786-0) was 7.76 µM (inactive) and the GI50 (MDA-MB-435) was 2.71 µM (inactive). For the same molecule, the GI50 (T47D) was 10.4 µM (inactive), the GI50 (PC-3) was 6.03 µM (inactive) and the GI50 (SR) was 1.93 µM (inactive). The GI50 (RXF 393) was 5.06 µM (inactive), the GI50 (NCI/ADR-RES) was 2.61 µM (inactive) and the GI50 (KM12) was 6.14 µM (inactive). The GI50 (TK-10) was 14.1 µM (inactive), the GI50 (OVCAR-3) was 6.04 µM (inactive) and the GI50 (HL-60) was 3.29 µM (inactive). For the same molecule, the GI50 (NCI-H522) was 1.84 µM (inactive), the GI50 (HOP-62) was 12.3 µM (inactive) and the GI50 (NCI-H226) was 5.4 µM (inactive). For the same molecule, the GI50 (A498) was 3.53 µM (inactive), the GI50 (SN12C) was 4.68 µM (inactive) and the GI50 (DU-145) was 5.07 µM (inactive). The GI50 (SK-MEL-2) was 6.03 µM (inactive), the GI50 (MOLT-4) was 3.59 µM (inactive) and the GI50 (SK-OV-3) was 4.33 µM (inactive). The GI50 (NCI-H23) was 3.52 µM (inactive), the GI50 (M14) was 2.88 µM (inactive) and the GI50 (LOX IMVI) was 2.79 µM (inactive). For the same molecule, the GI50 (U-251) was 6.56 µM (inactive), the GI50 (EKVX) was 8.07 µM (inactive) and the GI50 (SNB-19) was 5.24 µM (inactive). For the same molecule, the GI50 (HCT-116) was 3.65 µM (inactive), the GI50 (UO-31) was 10 µM (inactive) and the GI50 (OVCAR-8) was 2.86 µM (inactive). The GI50 (COLO 205) was 4.55 µM (inactive), the GI50 (SW-620) was 4.25 µM (inactive) and the GI50 (SF-295) was 6.08 µM (inactive). For the same molecule, the GI50 (SNB-75) was 10.7 µM (inactive), the GI50 (NCI-H460) was 4.51 µM (inactive) and the GI50 (OVCAR-5) was 6.08 µM (inactive). For the same molecule, the GI50 (SK-MEL-5) was 3.64 µM (inactive), the GI50 (HCT-15) was 3.31 µM and the GI50 (BT-549) was 3.15 µM (inactive). The GI50 (HT-29) was 4.82 µM (inactive).

In the case of `COc1ccc2oc(=N)c(C(N)=O)cc2c1`, the GI50 (RPMI-8226) is reported as > 100 µM (inactive), the GI50 (MDA-N) is reported as 57.1 µM (inactive) and the GI50 (MDA-MB-231) is reported as 66.8 µM (inactive). The GI50 (SK-MEL-28) was 79.4 µM (inactive), the GI50 (CAKI-1) was 50.6 µM (inactive) and the GI50 (ACHN) was 30.3 µM (inactive). The GI50 (UACC-257) was > 100 µM (inactive), the GI50 (SF-268) was 44.3 µM (inactive) and the GI50 (OVCAR-4) was 48.1 µM (inactive). The GI50 (A549) was > 100 µM (inactive), the GI50 (Hs-578T) was 18.2 µM (inactive) and the GI50 (CCRF-CEM) was 33.2 µM (inactive). For the same molecule, the GI50 (IGROV-1) was 30.5 µM (inactive), the GI50 (K562) was > 100 µM (inactive) and the GI50 (UACC-62) was 29.8 µM (inactive). The GI50 (SF-539) was 66.5 µM (inactive), the GI50 (HOP-92) was > 100 µM (inactive) and the GI50 (HCC 2998) was 32.7 µM (inactive). For the same molecule, the GI50 (786-0) was 53.5 µM (inactive), the GI50 (MDA-MB-435) was 49.4 µM (inactive) and the GI50 (T47D) was 32 µM (inactive). The GI50 (PC-3) was 37.9 µM (inactive), the GI50 (SR) was 38.5 µM (inactive) and the GI50 (RXF 393) was > 100 µM (inactive). For the same molecule, the GI50 (NCI/ADR-RES) was 53.3 µM (inactive), the GI50 (KM12) was 31.5 µM (inactive) and the GI50 (OVCAR-3) was 37.4 µM (inactive). For the same molecule, the GI50 (HL-60) was 22.9 µM (inactive), the GI50 (HOP-62) was 55.2 µM (inactive) and the GI50 (NCI-H226) was 46.1 µM (inactive). The GI50 (A498) was 44.2 µM (inactive), the GI50 (SN12C) was 74.5 µM (inactive) and the GI50 (DU-145) was 71.9 µM (inactive). For the same molecule, the GI50 (SK-MEL-2) was 23.6 µM (inactive), the GI50 (MOLT-4) was 65.9 µM (inactive) and the GI50 (SK-OV-3) was > 100 µM (inactive). For the same molecule, the GI50 (NCI-H23) was 68.2 µM (inactive), the GI50 (M14) was 87.3 µM (inactive) and the GI50 (LOX IMVI) was 37.4 µM (inactive). For the same molecule, the GI50 (U-251) was > 100 µM (inactive), the GI50 (SNB-19) was 38.4 µM (inactive) and the GI50 (HCT-116) was 50.9 µM (inactive). For the same molecule, the GI50 (OVCAR-8) was > 100 µM (inactive), the GI50 (COLO 205) was 49 µM (inactive) and the GI50 (SW-620) was 94.8 µM (inactive). The GI50 (SNB-75) was 30.1 µM (inactive), the GI50 (NCI-H460) was 39.2 µM (inactive) and the GI50 (OVCAR-5) was > 100 µM (inactive). For the same molecule, the GI50 (SK-MEL-5) was 60.4 µM (inactive), the GI50 (HCT-15) was 53.1 µM and the GI50 (BT-549) was 57.7 µM (inactive). For the same molecule, the GI50 (HT-29) was 56.4 µM (inactive).

With `CC(=O)Nc1ccc(C(=O)NN2C(=O)CSC2c2ccccc2)cc1` (configuration not stated) the GI50 (RPMI-8226) was > 100 µM (inactive), the GI50 (MDA-N) was > 100 µM (inactive) and the GI50 (MDA-MB-231) was > 100 µM (inactive). For the same molecule, the GI50 (SK-MEL-28) was > 100 µM (inactive), the GI50 (ACHN) was > 100 µM (inactive) and the GI50 (UACC-257) was > 100 µM (inactive). For the same molecule, the GI50 (SF-268) was > 100 µM (inactive), the GI50 (OVCAR-4) was > 100 µM (inactive) and the GI50 (A549) was > 100 µM (inactive). The GI50 (Hs-578T) was > 100 µM (inactive), the GI50 (CCRF-CEM) was > 100 µM (inactive) and the GI50 (IGROV-1) was > 100 µM (inactive). For the same molecule, the GI50 (K562) was > 100 µM (inactive), the GI50 (UACC-62) was > 100 µM (inactive) and the GI50 (SF-539) was > 100 µM (inactive). The GI50 (HOP-92) was > 100 µM (inactive), the GI50 (HCC 2998) was > 100 µM (inactive) and the GI50 (786-0) was > 100 µM (inactive). The GI50 (MDA-MB-435) was > 100 µM (inactive), the GI50 (T47D) was > 100 µM (inactive) and the GI50 (RXF 393) was > 100 µM (inactive). For the same molecule, the GI50 (NCI/ADR-RES) was > 100 µM (inactive), the GI50 (KM12) was > 100 µM (inactive) and the GI50 (TK-10) was > 100 µM (inactive). For the same molecule, the GI50 (OVCAR-3) was > 100 µM (inactive), the GI50 (HOP-62) was > 100 µM (inactive) and the GI50 (NCI-H226) was > 100 µM (inactive). The GI50 (MCF7) was > 100 µM (inactive), the GI50 (A498) was > 100 µM (inactive) and the GI50 (SN12C) was > 100 µM (inactive). For the same molecule, the GI50 (DU-145) was > 100 µM (inactive), the GI50 (SK-MEL-2) was 69.5 µM (inactive) and the GI50 (MOLT-4) was > 100 µM (inactive). For the same molecule, the GI50 (SK-OV-3) was > 100 µM (inactive), the GI50 (NCI-H23) was > 100 µM (inactive) and the GI50 (M14) was > 100 µM (inactive). For the same molecule, the GI50 (U-251) was > 100 µM (inactive), the GI50 (EKVX) was > 100 µM (inactive) and the GI50 (SNB-19) was > 100 µM (inactive). The GI50 (HCT-116) was > 100 µM (inactive), the GI50 (UO-31) was > 100 µM (inactive) and the GI50 (OVCAR-8) was > 100 µM (inactive). For the same molecule, the GI50 (COLO 205) was > 100 µM (inactive), the GI50 (SW-620) was > 100 µM (inactive) and the GI50 (SF-295) was > 100 µM (inactive). For the same molecule, the GI50 (SNB-75) was 90.8 µM (inactive), the GI50 (NCI-H460) was > 100 µM (inactive) and the GI50 (OVCAR-5) was > 100 µM (inactive). For the same molecule, the GI50 (SK-MEL-5) was > 100 µM (inactive), the GI50 (HCT-15) was > 100 µM and the GI50 (BT-549) was 34.5 µM (inactive). For the same molecule, the GI50 (HT-29) was > 100 µM (inactive).

— ChEMBL document CHEMBL1201862, “PubChem BioAssay data set” (2004)
